According to paper PMC10964573, “OCTN2- and ATB^0,+-targeted nanoemulsions for improving ocular drug delivery” (Journal of Nanobiotechnology, 2024):
Entries after “also recorded” stand apart in the source; their conditions may differ.

Assay: Solubility of DEX in oils (shake flask)
Type: physicochemical
Conditions: Labrafil M1944 CS versus medium-chain triglycerides, soybean oil, olive oil; 37 °C, 72 h
Description: The solubility of drug in oils is the basis for the selection of the oil phase. The solubility of DEX in various oils, including medium-chain triglycerides, soybean oil, olive oil, and Labrafil® M1944 CS was determined by the shake flask method. Briefly, an excessive amount of DEX was added to 1mL of oil in an Eppendorf tube and mixed in a water bath sonication. Then the tubes were placed in a water bath shaker at 37 ± 0.5 °C. After shaking for 72 h, the samples were centrifuged at 10,000 rpm for 10 min. The supernatant was extracted with ethanol solution by sonicating for 20 min and centrifuging at 10,000 rpm for 10 min. The DEX concentration in the supernatant was determined by high-performance liquid chromatography. […] Next, the effect of the amount of Labrafil® M1944 CS content on the physicochemical properties of the DEX NEs was screened (Table S1). When the amount of Labrifil® M 1944 CS was 50 mg, DEX NEs had higher drug content (0.64±0.003mg/mL) and EE (91.3±2.8%), and this formulation was selected to further prepare DEX SC-NEs.

Compound: C[C@@H]1C[C@H]2[C@@H]3CCC4=CC(=O)C=C[C@]4(C)[C@@]3(F)[C@@H](O)C[C@]2(C)[C@@]1(O)C(=O)CO [DEX, Dexamethasone]
- solubility in oil: high solubility; also recorded: highest
